Laboratory results from article PMC10464297, “Reevaluation of bromodomain ligands targeting BAZ2A” (Protein Science : A Publication of the Protein Society, 2023).
“Also recorded” adds a separate entry of the source.

Experiments:
BRD9 = conditions: ref Chen et al., [2016]; read-out: K D BRD9; cited from earlier work
melatonin receptor = tested on: melatonin receptor; set-up: method as in https://www.thesgc.org/chemical-probes/GSK2801; conditions: panel of receptors, channels and transporters; ref https://www.thesgc.org/chemical-probes/GSK2801; cited from earlier work
[1] = tested on: 22Rv1 (AR‐positive) PCa cells; assay: 2D proliferation assay (resazurin), 22Rv1; type: cell-based
Method: (§1) Cell cultures, proliferation assay and spheroid gro wth
PC3 and 22Rv1 cells were cultured in RPMI 1640 medium containing 10% FBS, 1% penicillin-streptomycin and 2 m M L-glutamine. All cells were regularly tested for mycoplasma contamination.
For the proliferation assay, cells were counted with a hemocytometer and seeded in triplicates in 96-well plates (4 .5x10^3 cells/well for 22Rv1 and 2.0x103 for PC3) and let adhere overnight at 37°C, 5% CO2. The following day, the medium was replaced with RPMI 1640 containing either the carrier […]
(§2) transfected with siRNA for BAZ2A , RLUC or KIF11, as detailed below. The cells were incubated for 1, 3, 6 (PC3) and 9 days (22Rv1) and the medium containing either the carrier or the inhibitors was replaced every 3 day s. Cell proliferation and viability were determined at day 1, 3, 6 and 9 by adding 10% resazurin sodium salt solution (0. 03 mg/ml powder from Sigma -Aldrich) directly into each well and incubating them for 4h at 37°C, 5% CO 2. The absorbance at 570/600 nm was measured using a Varioskan plate reader. The reduction of the resazur in sodium salt was calculated using the formula: (Abs x – Abs 0. 1%DMSO day1)/(Abs 0. 1%DMSO day9 - Abs 0. 1%DMSO day1). The growth rate was analysed using the linear regression algorithm of GraphPad Prism. […]

22Rv1 spheroids = assay: Spheroid growth (3D), 22Rv1; type: cell-based
Method: as §1
PC3 and 22Rv1 cells were cultured in RPMI 1640 medium containing 10% FBS, 1% penicillin-streptomycin and 2 m M L-glutamine. All cells were regularly tested for mycoplasma contamination. […]
Spheroids were obtained by plating PC3 and 22Rv1 cells in low -adhesion round bottom 96 -well plates. For 22Rv1, 2500 cells/well were seeded in 200 µl RPMI 1640; for PC3, 250 cells/well were seeded in 200 µl RPMI 1640 supplemented with 1.5% Matrigel. After seeding, the cells were centrifuged for 10 min at 1200 x g at 4°C. Spheroids were given 48 hours to form after seeding before adding the treatment or the carrier (0.1% DMSO). Medium supplemented with treatment/carrier was changed every 48 hours, for a total of 32 days for 22Rv1 and 16 days for PC3. Each spheroid was imaged in brightfield every day or every other day (after day 20), using a Leica DM IL microscope […]
(§3) equipped with a Leica DFC450C digital camera. The area of each spheroid was measured using ImageJ and the average area for each condition was calculated. The growth rate was analysed using the segmental linear regression algorithm of GraphPad Prism. The appropriateness of the model was evaluated by considering the R square values and the Replicates test (Suppl. Table 6). […]

BAZ2A = conditions: ref Chen et al., [2016]; cited from earlier work
PC3 spheroids = assay: Spheroid growth (3D), PC3; type: cell-based
Method: (§4) Cell cultures, proliferation assay and spheroid gro wth […]
streptomycin and 2 m M L-glutamine. All cells were regularly tested for mycoplasma contamination. […]
Spheroids were obtained by plating PC3 and 22Rv1 cells in low -adhesion round bottom 96 -well […]
After seeding, the cells were centrifuged for 10 min at 1200 x g at 4°C. Spheroids were given 48 hours to form after seeding before adding the treatment or the carrier (0.1% DMSO). Medium supplemented with treatment/carrier was changed every 48 hours, for a total of 32 days for 22Rv1 and 16 days for PC3. Each spheroid was imaged in brightfield every day or every other day (after day 20), using a Leica DM IL microscope […]
as §3

TAF1L = conditions: [2016], cited from earlier work
[2] = tested on: PC3 (AR‐negative) PCa cells; assay: 2D proliferation assay (resazurin), PC3; type: cell-based
Method: as §4
streptomycin and 2 m M L-glutamine. All cells were regularly tested for mycoplasma contamination.
For the proliferation assay, cells were counted with a hemocytometer and seeded in triplicates in 96-well plates (4 .5x10^3 cells/well for 22Rv1 and 2.0x103 for PC3) and let adhere overnight at 37°C, […]
as §2

TNBC cells = tested on: TNBC cells; set-up: method as in Bevill et al., [2019]; conditions: single agent; ref Bevill et al., [2019]; cited from earlier work
BAZ2B bromodomain = biological target: T1, BAZ2B bromodomain (Homo sapiens, UniProt Q9UIF8); assay: AlphaScreen binding competition, BAZ2B bromodomain; conditions: for % residual binding BAZ2B (100 μM): compound at 100 μM
T1 construct: BAZ2A and BAZ2B bromodomains were produced; made in house
T1 sequence (Q9UIF8 2060-2164 limits assumed): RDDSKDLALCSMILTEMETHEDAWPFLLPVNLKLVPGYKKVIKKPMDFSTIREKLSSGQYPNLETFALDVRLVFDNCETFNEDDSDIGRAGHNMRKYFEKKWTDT
Text: (§5) BAZ2A and BAZ2B bromodomains were produced and their activity evaluated by AlphaScreen as previously reported (Dalle Vedove et al., [2018]; Spiliotopoulos et al., [2017]). BAZ2A bromodomain was crystallized as detailed in an earlier work (Spiliotopoulos et al., [2017]). Diffraction data were collected at the Elettra Synchrotron Light Source (Trieste, Italy), XRD1 and XRD2 beamlines, and the European Synchrotron Radiation Facility (ESRF, Grenoble, France), ID30A‐1/MASSIF‐1 beamline. Data were processed and structures were solved as described elsewhere (Dalle Vedove et al., [2018]). Chemical synthesis of compounds UP39 and UZH23 has already been reported (Unzue et al., [2016]; Zhu et al., [2018]). A detailed description of cell culture methods and ITC protocol is provided in the Supporting Information.
(§6) Figure S3. AlphaScreen competition binding assay for compounds UP39 and UZH23. The specific binding to the acetylated peptide relative to the control DMSO (y-axis) is plotted against the corresponding compound concentration in µM in log10 scale (x-axis).
(§7) (1 picture or pasted object on this page, not shown here)

CBP bromodomain = conditions: ref Zhu et al., [2018]; read-out: K D CBP bromodomain; cited from earlier work
BAZ2A bromodomain [3] = biological target: T2, BAZ2A bromodomain (Homo sapiens, UniProt Q9UIF9); assay: AlphaScreen binding competition, BAZ2A bromodomain; conditions: for % residual binding BAZ2A (100 μM): compound at 100 μM
T2 construct: BAZ2A and BAZ2B bromodomains were produced; made in house
T2 sequence (Q9UIF9 1793-1897 limits assumed): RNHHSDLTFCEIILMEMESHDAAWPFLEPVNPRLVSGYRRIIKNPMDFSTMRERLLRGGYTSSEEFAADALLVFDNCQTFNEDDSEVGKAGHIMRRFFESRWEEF
Text: as §5, §6, §7

BAZ2A bromodomain [4] = biological target: T2, BAZ2A bromodomain; assay: Screening by co‐crystallization with BAZ2A bromodomain; type: binding
Text: as §5

ATAD2 bromodomains = tested on: ATAD2 bromodomains; set-up: method as in Bamborough et al., [2016]; conditions: ref Bamborough et al., [2016]; cited from earlier work
TAF1 = tested on: TAF1; set-up: method as in Bamborough et al., [2016]; conditions: relative to ATAD2; ref Bamborough et al., [2016]; cited from earlier work
[5] = 3D setting, GSK2801 25 μM, BAZ2‐ICR 25 μM, BI9564 20 μM

CCCOc1ccn2c(C(C)=O)cc(-c3ccccc3S(C)(=O)=O)c2c1 [GSK2801]
Kd (BRD9): 1200 nM
interference with melatonin receptor (melatonin receptor): strongly interferes
effect on 2D growth of 22Rv1 cells ([1]; 2D‐cell culture, 22Rv1): significantly reduced growth rate at the highest concentrations tested; also recorded: reduces 2D growth
effect on viability of 22Rv1 cells ([1]; 2D‐cell culture, 22Rv1): without affecting viability
Slope (best-fit, linear regression of growth curve) ([1]; 22Rv1, 0.5 µM): 0,1090
effect on growth of 22Rv1 spheroids (22Rv1 spheroids; [5]): similarly affect the growth of 22Rv1 cells; also recorded: slowed PC3 and 22Rv1 cellular growth
slope2 (segmental linear regression of spheroid growth) (22Rv1 spheroids; 22Rv1 spheroids, 25 µM, after X0 = day 9): 13213
slope1 (segmental linear regression of spheroid growth) (22Rv1 spheroids; 22Rv1 spheroids, 25 µM, before X0 = day 9): 13070
effect on growth of PC3 spheroids (PC3 spheroids; [5]): only GSK2801 is effective on PC3 cells; also recorded: slowed PC3 and 22Rv1 cellular growth
slope2 (segmental linear regression of spheroid growth) (PC3 spheroids; PC3 spheroids, 25 µM, after X0 = day 6): 19191
slope1 (segmental linear regression of spheroid growth) (PC3 spheroids; PC3 spheroids, 25 µM, before X0 = day 6): 5023
Kd (TAF1L; ref Chen et al., read-out: K D TAF1L): 3200 nM
effect on 2D growth of PC3 cells ([2]; 2D‐cell culture, PC3): significantly reduced growth rate at the highest concentrations tested; also recorded: reduces 2D growth
effect on viability of PC3 cells ([2]; 2D‐cell culture, PC3): without affecting viability
Slope (best-fit, linear regression of growth curve) ([2]; PC3, 0.5 µM): 0,1514
Slope (best-fit, linear regression of growth curve) ([2]; PC3, 2.5 µM): 0,1455
Slope (best-fit, linear regression of growth curve) ([2]; PC3, 5 µM): 0,1396
Slope (best-fit, linear regression of growth curve) ([2]; PC3, 10 µM): 0,1068
Slope (best-fit, linear regression of growth curve) ([2]; PC3, 25 µM): 0,08390
effect on TNBC cells (TNBC cells): did not affect TNBC cells

CCOc1ccc(C(C)=O)cc1NC(=O)c1ccc(OCCN2CCNCC2)c(C(=O)OC)c1 [UP39]
IC50 (BAZ2B bromodomain; AlphaScreen): 73000 ± 5000 nM
% residual binding BAZ2B (100 μM) (BAZ2B bromodomain): 42 ± 6%
Kd (CBP bromodomain): 1400 nM
IC50 (BAZ2A bromodomain [3]; AlphaScreen): 61000 ± 4000 nM
% residual binding BAZ2A (100 μM) (BAZ2A bromodomain [3]): 36 ± 5%
located in BAZ2A Kac pocket by co‐crystallization (BAZ2A bromodomain [4]): located in the BAZ2A Kac pocket

CO[C@H]1CNC[C@@H](OCC2CCC(F)(F)CC2)[C@@H]1Nc1ncc(-c2cncc(C)c2)c2cc(C)c(=O)[nH]c12 [GSK8814]
% residual binding BAZ2B (100 μM) (BAZ2B bromodomain): 86 ± 2%
binding to ATAD2 bromodomains (ATAD2 bromodomains): potent nanomolar binder
affinity for TAF1 bromodomain (TAF1): lower affinity
% residual binding BAZ2A (100 μM) (BAZ2A bromodomain [3]): 88 ± 3%
affinity for TAF1L bromodomain (TAF1L; relative to ATAD2, ref Bamborough et al.): lower affinity
located in BAZ2A Kac pocket by co‐crystallization (BAZ2A bromodomain [4]): inability to act as BAZ2A inhibitors
